This note sets out measurements from ChEMBL document CHEMBL3044568, “Synthesis, analgesic, anti-inflammatory, and in vitro antimicrobial activities of some novel quinazolin-4(3H)-one derivatives” (Med Chem Res, 2013).

Values after ≈ are worked out from the molar mass of the structure shown.

Broadly, the MIC is the smallest concentration in the dilution series that meets the test's criterion for growth inhibition.

The subject of data set [1] is Rattus norvegicus. Briefly: Ulcerogenecity in Rattus norvegicus Wistar albino (rat) stomach assessed as ulcer index administered 200 mg/kg, ip qd for 3 days measured on day 4 (reference value: 0.13 +/- 0.05 no unit). Type of data set: ADME, organism-based. Also on record: dose 200 mg/kg, route intraperitoneal. Particulars: in vivo, 72 h.
For data set [2], the system named is Mus musculus. Briefly: Analgesic activity in Mus musculus […] albino (mouse) at 10 mg/kg, po measured at 1 hr by tail flick test (reference value: 5 +/- 0.49%).
In data set [3] the test system is Mus musculus. Briefly: Analgesic activity in Mus musculus […] albino (mouse) at 20 mg/kg, po measured at 1 hr by tail flick test (reference value: 5 +/- 0.49%). For orientation: Thermal pain tests record how soon the animal reacts.
The test system of data set [4] is Mus musculus. Briefly: Analgesic activity in Mus musculus […] albino (mouse) at 20 mg/kg, po measured at 2 hr by tail flick test (reference value: 6 +/- 0.84%).
A further data set deals with Escherichia coli. In words: Antibacterial activity against Escherichia coli ATCC 25922 assessed as growth inhibition after 24 hr by agar streak dilution method. The format is functional. Particulars: ATCC 25922, 24 h.
The next data set relates to Aspergillus niger. Briefly: Antifungal activity against Aspergillus niger ATCC 9029 assessed as growth inhibition after 48 hr by agar streak dilution method. Particulars: ATCC 9029, 48 h. Type of data set: functional.
For another data set, the system named is Aspergillus fumigatus. Briefly: Antifungal activity against Aspergillus fumigatus ATCC 46645 assessed as growth inhibition after 48 hr by agar streak dilution method. Type of data set: functional. The settings on record: ATCC 46645, 48 h.
For another data set, the system named is Klebsiella pneumoniae. Briefly: Antibacterial activity against Klebsiella pneumoniae ATCC 11298 assessed as growth inhibition after 24 hr by agar streak dilution method. The format is functional. Particulars: ATCC 11298, 24 h.
Data set [5] has as its system Mus musculus. Briefly: Analgesic activity in Mus musculus […] albino (mouse) at 10 mg/kg, po measured at 30 min by tail flick test (reference value: 4 +/- 0.72%).
For data set [6], the system named is Rattus norvegicus. Briefly: Anti-inflammatory activity in Rattus norvegicus Wistar (rat) assessed as protection against carrageenan-induced paw edema at 20 mg/kg, po measured at 2 hr by plethysmographic analysis (reference value: 5 +/- 0.41%). The format is functional.
A further data set has as its system Micrococcus luteus. Briefly: Antibacterial activity against Micrococcus luteus ATCC 4698 assessed as growth inhibition after 24 hr by agar streak dilution method. Particulars: ATCC 4698, 24 h. Type of data set: functional.
Data set [7] deals with Rattus norvegicus. Briefly: Anti-inflammatory activity in Rattus norvegicus Wistar (rat) assessed as protection against carrageenan-induced paw edema at 10 mg/kg, po measured at 30 min by plethysmographic analysis (reference value: 4 +/- 0.28%). Type of data set: functional. On the technique in general: Carrageenan injected into the paw causes an acute inflammation.
In data set [8] the test system is Mus musculus. Briefly: Analgesic activity in Mus musculus […] albino (mouse) at 20 mg/kg, po measured at 30 min by tail flick test (reference value: 4 +/- 0.72%).
The test system of data set [9] is Rattus norvegicus. In words: Anti-inflammatory activity in Rattus norvegicus Wistar (rat) assessed as protection against carrageenan-induced paw edema at 10 mg/kg, po measured at 1 hr by plethysmographic analysis (reference value: 6 +/- 0.63%). Type of data set: functional.
Data set [10] deals with Rattus norvegicus. In words: Anti-inflammatory activity in Rattus norvegicus Wistar (rat) assessed as protection against carrageenan-induced paw edema at 20 mg/kg, po measured at 30 min by plethysmographic analysis (reference value: 4 +/- 0.28%). Type of data set: functional.
The subject of data set [11] is Mus musculus. Briefly: Analgesic activity in Mus musculus […] albino (mouse) at 10 mg/kg, po measured at 3 hr by tail flick test (reference value: 3 +/- 0.41%).
The test system of data set [12] is Staphylococcus epidermidis. Briefly: Antibacterial activity against Staphylococcus epidermidis ATCC 155 assessed as growth inhibition after 24 hr by agar streak dilution method. Type of data set: functional. Particulars: ATCC 155, 24 h.
Data set [13] has as its system Rattus norvegicus. In words: Anti-inflammatory activity in Rattus norvegicus Wistar (rat) assessed as protection against carrageenan-induced paw edema at 20 mg/kg, po measured at 1 hr by plethysmographic analysis (reference value: 6 +/- 0.63%). The format is functional.
For data set [14], the system named is Rattus norvegicus. In words: Anti-inflammatory activity in Rattus norvegicus Wistar (rat) assessed as protection against carrageenan-induced paw edema at 20 mg/kg, po measured at 3 hr by plethysmographic analysis (reference value: 4 +/- 0.75%). The format is functional.
In data set [15] the test system is Rattus norvegicus. In words: Ulcerogenecity in Rattus norvegicus Wistar albino (rat) stomach assessed as ulcer index administered 20 mg/kg, ip qd for 3 days measured on day 4 (reference value: 0.13 +/- 0.05 no unit). Type of data set: ADME, organism-based. Also noted: dose 20 mg/kg, route intraperitoneal. The settings on record: in vivo, 72 h.
Data set [16] has as its system Mus musculus. Briefly: Analgesic activity in Mus musculus […] albino (mouse) at 10 mg/kg, po measured at 2 hr by tail flick test (reference value: 6 +/- 0.84%).
The test system of data set [17] is Rattus norvegicus. Briefly: Anti-inflammatory activity in Rattus norvegicus Wistar (rat) assessed as protection against carrageenan-induced paw edema at 10 mg/kg, po measured at 3 hr by plethysmographic analysis (reference value: 4 +/- 0.75%). The format is functional.
Data set [18] concerns Rattus norvegicus. Briefly: Ulcerogenecity in Rattus norvegicus Wistar albino (rat) stomach assessed as ulcer index administered 20 mg/kg, ip qd for 3 days measured on day 4 relative to diclofenac. The settings on record: in vivo, 72 h. The format is ADME, organism-based. Also on record: dose 20 mg/kg, route intraperitoneal.
A further data set concerns Bacillus cereus. Briefly: Antibacterial activity against Bacillus cereus ATCC 11778 assessed as growth inhibition after 24 hr by agar streak dilution method. The settings on record: ATCC 11778, 24 h. The format is functional.
For data set [19], the system named is Mus musculus. In words: Analgesic activity in Mus musculus […] albino (mouse) at 20 mg/kg, po measured at 3 hr by tail flick test (reference value: 3 +/- 0.41%).
Another data set has as its system Pseudomonas aeruginosa. In words: Antibacterial activity against Pseudomonas aeruginosa […] assessed as growth inhibition after 24 hr by agar streak dilution method. The format is functional.
Another data set deals with Staphylococcus aureus. In words: Antibacterial activity against Staphylococcus aureus ATCC 9144 assessed as growth inhibition after 24 hr by agar streak dilution method. Type of data set: functional. Particulars: ATCC 9144, 24 h.
For data set [20], the system named is Rattus norvegicus. Briefly: Ulcerogenecity in Rattus norvegicus Wistar albino (rat) stomach assessed as ulcer index administered 20 mg/kg, ip qd for 3 days measured on day 4 relative to aspirin. The settings on record: in vivo, 72 h. Also on record: dose 20 mg/kg, route intraperitoneal. Type of data set: ADME, organism-based.
Data set [21] relates to Rattus norvegicus. In words: Anti-inflammatory activity in Rattus norvegicus Wistar (rat) assessed as protection against carrageenan-induced paw edema at 10 mg/kg, po measured at 2 hr by plethysmographic analysis (reference value: 5 +/- 0.41%). Type of data set: functional.

Take `CC(=O)Oc1ccccc1C(=O)O` [ASPIRIN]: the UI in the data set on Rattus norvegicus [1] was found to be 1.79%.
Consider `Cc1ccc(/C=N/NCC(=O)Nc2ccc(-n3c(C)nc4ccccc4c3=O)cc2)cc1`, for which the Activity worked out at 42% in the data set with Mus musculus [2]; 59% with Mus musculus [3]; 63% with Mus musculus [4]; 37% with Mus musculus [5]; 60% in the data set with Rattus norvegicus [6]; 30% in the data set on Rattus norvegicus [7]. Further, the Activity was 48% with Mus musculus [8]; 35% with Rattus norvegicus [9]; 41% with Rattus norvegicus [10]; 37% with Mus musculus [11]; 54% in the data set on Rattus norvegicus [13]; 39% in the data set on Rattus norvegicus [14]. The Activity with Mus musculus [16] came out at 47%; in the data set with Rattus norvegicus [17] it was 31%; with Mus musculus [19] it was 41%; in the data set on Rattus norvegicus [21], 41%. For the same compound, the MIC was found to be 62.5 µg/mL (≈ 147 µM) with Escherichia coli; 62.5 µg/mL (≈ 147 µM) with Aspergillus niger; 125 µg/mL (≈ 294 µM) with Aspergillus fumigatus; 31.2 µg/mL (≈ 73.4 µM) in the data set on Klebsiella pneumoniae; 125 µg/mL (≈ 294 µM) in the data set on Micrococcus luteus; 62.5 µg/mL (≈ 147 µM) in [12]. The MIC is 31.2 µg/mL (≈ 73.4 µM) in the data set on Bacillus cereus, 62.5 µg/mL (≈ 147 µM) in the data set on Pseudomonas aeruginosa and 125 µg/mL (≈ 294 µM) with Staphylococcus aureus. For the same compound, the UI turned out to be 0.61 no unit with Rattus norvegicus [15], 34% in the data set with Rattus norvegicus [18] and 31% in the data set on Rattus norvegicus [20].
